Experiments:
BT474 cells = test: Cell viability assay (CellTiter-Glo), BT474; assay type: cell-based; conditions: Homo sapiens, BT-474, HER2 expressing cells, 72 h
Experimental: (§1) Cell Viability Assay for Antibody-Polymer-Drug Conjugates.
(§2) PBD compounds and conjugates thereof were evaluated for their antiproliferation properties in tumor cell lines in vitro using CellTiter-Glo® (Promega Corp). Cells were plated in black walled 96-well plate and allowed to adhere overnight at 37° C. in a humidified atmosphere of 5% CO2. BT474, SKBR3, NCI-N87 cells (HER2 expressing cells), JIMT1 cells (HER2 medium expression level cells) and MCF7 cells (HER2 low expressing levels cells) and were plated at a density of 5,000 cells per well. The next day the medium was replaced with 50 μL fresh medium and 50 μL of 2× stocks of PBD compounds or antibody-PBD conjugate were added to appropriate wells, mixed and incubated for 72 h. CellTiter-Glo® reagent was added to the wells at room temperature and the luminescent signal was measured after 10 min using a SpectraMax M5 plate reader (Molecular Devices). Dose response curves were generated using SoftMax Pro software. IC50 values were determined from four-parameter curve fitting.

SKBR3 cells = test: Cell viability assay (CellTiter-Glo), SKBR3; assay type: cell-based; conditions: Homo sapiens, SK-BR-3, HER2 expressing cells, 72 h
Experimental: as §1, §2

NCI-N87 cells = test: Cell viability assay (CellTiter-Glo), NCI-N87; assay type: cell-based; conditions: Homo sapiens, HER2 expressing cells, 72 h
Experimental: as §1, §2

JIMT1 cells = test: Cell viability assay (CellTiter-Glo), JIMT1; assay type: cell-based; conditions: Homo sapiens, JIMT-1, HER2 medium expression level cells, 72 h
Experimental: as §1, §2

MCF7 cells = test: Cell viability assay (CellTiter-Glo), MCF7; assay type: cell-based; conditions: Homo sapiens, HER2 low expressing levels cells, 72 h
Experimental: as §1, §2

[1] = Phase I clinical evaluation; cited from earlier work

Row | SMILES | IC50 (BT474 cells; PBD compounds (Table I)) | IC50 (SKBR3 cells; PBD compounds (Table I)) | IC50 (NCI-N87 cells; PBD compounds (Table I)) | IC50 (JIMT1 cells; PBD compounds (Table I)) | IC50 (MCF7 cells; PBD compounds (Table I)) | maximum tolerated dose [1] | IC50 (BT474 cells; conjugates (Table II)) | IC50 (SKBR3 cells; conjugates (Table II)) | IC50 (NCI-N87 cells; conjugates (Table II)) | IC50 (JIMT1 cells; conjugates (Table II)) | IC50 (MCF7 cells; conjugates (Table II))
1 | COc1cc2c(cc1OCCCC(=O)Nc1cc(C(=O)Nc3ccc(-c4cc(C(=O)NCCCO)n(C)c4)cc3)n(C)c1)N=C[C@@H]1CCCN1C2=O [Compound 38, (S,Z)—N-(3-hydroxypropyl)-4-(4-(4-(4-(7-methoxy-5-oxo-2,3,5,11a-tetrahydro-1H-benzo[e]pyrrolo[1,2-a][1,4]diazepin-8-yloxy)butanamido)-1-methyl-1H-pyrrole-2-carboxamido)phenyl)-1-methyl-1H-pyrrole-2-carboxamide] | 7 nM | 2 nM | 4 nM | 3 nM | 8 nM | – | – | – | – | – | –
2 | C=C1C[C@H]2C=Nc3cc(OCCCOc4cc5c(cc4OC)C(=O)N4CC(=C)C[C@H]4C=N5)c(OC)cc3C(=O)N2C1 [SJG-136] | – | – | – | – | – | 45 μg/m^2 | – | – | – | – | –
3 | C=C1C[C@H]2C=Nc3cc(OCCCC(=O)Nc4cn(C)c(C(=O)Nc5ccc(-c6nc7cc(OC)ccc7[nH]6)cc5)n4)c(OC)cc3C(=O)N2C1 [Compound 106, (S,Z)—N-(4-(5-methoxy-1H-benzo[d]imidazol-2-yl)phenyl)-4-(4-(7-methoxy-2-methylene-5-oxo-2,3,5,11a-tetrahydro-1H-benzo[e]pyrrolo[1,2-a][1,4]diazepin-8-yloxy)butanamido)-1-methyl-1H-imidazole-2-carboxamide] | – | – | – | – | – | – | 0.73 nM | 0.13 nM | 0.21 nM | 0.17 nM | 0.84 nM
4 | COc1cc2c(cc1OCCCC(=O)Nc1cn(C)c(C(=O)Nc3ccc(-c4cc(C(=O)O)n(C)c4)cc3)n1)N=C[C@@H]1CCCN1C2=O [Compound 44, (S,Z)-4-(4-(4-(4-(7-methoxy-5-oxo-2,3,5,11a-tetrahydro-1H-benzo[e]pyrrolo[1,2-a][1,4]diazepin-8-yloxy)butanamido)-1-methyl-1H-imidazole-2-carboxamido)phenyl)-1-methyl-1H-pyrrole-2-carboxylic acid] | 1000 nM | 53 nM | 105 nM | 109 nM | 560 nM | – | – | – | – | – | –
5 | C=C1C[C@H]2C=Nc3cc(OCCCC(=O)Nc4cn(C)c(C(=O)Nc5ccc(-c6cc(C(=O)O)n(C)c6)cc5)n4)c(OC)cc3C(=O)N2C1 [Compound 43, (S,Z)-4-(4-(4-(4-(7-methoxy-2-methylene-5-oxo-2,3,5,11a-tetrahydro-1H-benzo[e]pyrrolo[1,2-a][1,4]diazepin-8-yloxy)butanamido)-1-methyl-1H-imidazole-2-carboxamido)phenyl)-1-methyl-1H-pyrrole-2-carboxylic acid] | 34.3 nM | 8.2 nM | 12 nM | 33.2 nM | 250 nM | – | – | – | – | – | –

— US10526294B2, “Pyrrolobenzodiazepines and conjugates thereof” (priority 2016, dated 2020)
